Laboratory results published in ChEMBL document CHEMBL5543158, “Design of Evodiamine-Glucose Conjugates with Improved In Vivo Antitumor Activity” (J Med Chem, 2024).
Converted amounts (≈) assume the structure as drawn. The source made the active and inactive calls. The calls are words filed in the database; no cut-off is given here.

What was measured:
Homo sapiens = species: Homo sapiens; assay: Inhibition of DNA topoisomerase 2 (unknown origin) mediated supercoiled DNA relaxation activity at 50 uM by agarose gel electrophoresis analysis
[1] = Cmax in mouse at 20 mg/kg, ip measured upto 24 hrs; assay type: ADME, organism-based; conditions: in vivo
HCT-116 [2] = assay: Induction of apoptosis in human HCT116 cells assessed as accumulation of cells at S phase at 0.05 uM measured after 48 hrs by Annexin V-PI Flow cytometry assay (reference value: 31.25%); assay type: functional
HCT-116 [3] = assay: Induction of apoptosis in human HCT116 cells assessed as accumulation of cells at G2 phase at 0.02 uM measured after 48 hrs by Annexin V-PI Flow cytometry assay (reference value: 17.63%); assay type: functional
HCT-116 [4] = assay: In vivo antitumor effect in human HCT-116 cells xenografted mouse model assessed as tumor growth inhibition at 10 mg/kg, ip twice a day administered 21 consecutive days; assay type: functional; conditions: read-out: TGI
[5] = Toxicity in mouse xenografted with human HCT-116 cells assessed as organ damage by measuring change in kidney at 10 mg/kg, ip twice a day administered 21 consecutive days; assay type: organism-based; conditions: in vivo
HCT-116 [6] = assay: Induction of DNA damage in human HCT-116 cells assessed as increase in gamma-H2AX level at above 0.02 to 0.5 uM incubated for 12 hrs by Western blotting analysis; assay type: functional, cell-based; conditions: dose 0.02-0.5 µM
[7] = Toxicity in mouse xenografted with human HCT-116 cells assessed as organ damage by measuring change in spleen at 10 mg/kg, ip twice a day administered 21 consecutive days; assay type: organism-based; conditions: in vivo
HCT-116 [8] = assay: In vivo antitumor effect in human HCT-116 cells xenografted mouse model assessed as induction of apoptosis in tumor at 10 to 20 mg/kg, ip twice a day administered 21 consecutive days by TUNEL based assay; assay type: functional, organism-based; conditions: dose 10-20 mg/kg
[9] = Tmax in mouse at 20 mg/kg, ip measured upto 24 hrs; assay type: ADME, organism-based; conditions: in vivo
HCT-116 [10] = assay: Induction of apoptosis in human HCT116 cells assessed as accumulation of cells at S phase at 0.02 uM measured after 48 hrs by Annexin V-PI Flow cytometry assay (reference value: 31.25%); assay type: functional
HCT-116 [11] = assay: In vivo antitumor effect in human HCT-116 cells xenografted mouse model assessed as decrease in dense tumor tissue at 10 to 20 mg/kg, ip twice a day administered 21 consecutive days by H and E staining based assay; assay type: functional, organism-based; conditions: dose 10-20 mg/kg
HCT-116 [12] = assay: Induction of apoptosis in human HCT116 cells assessed as accumulation of cells at G2 phase at 0.2 uM measured after 48 hrs by Annexin V-PI Flow cytometry assay (reference value: 17.63%); assay type: functional
[13] = Cytotoxicity against HUVEC after 72 hrs by CCK-8 assay; assay type: toxicity, cell-based; conditions: human, HUVEC cells
HCT-116 [14] = assay: Induction of apoptosis in human HCT116 cells assessed as accumulation of cells at G2 phase at 0.1 uM measured after 48 hrs by Annexin V-PI Flow cytometry assay (reference value: 17.63%); assay type: functional
[15] = MRT (0 to t) in mouse at 20 mg/kg, ip measured upto 24 hrs; assay type: ADME, organism-based; conditions: in vivo
HCT-116 [16] = assay: Anti-invasive activity against human HCT116 cells assessed as decrease in number of cell migration into lower compartment incubated for 24 hrs by transwell assay; assay type: functional, cell-based; conditions: dose 0.02-0.05 µM
HCT-116 [17] = assay: Reduction in GSH level in human HCT-116 cells assessed as reduced GSH content incubated for 12 hrs; assay type: functional, cell-based; conditions: dose 0.1-2 µM
[18] = Half life in mouse at 20 mg/kg, ip measured upto 24 hrs; assay type: ADME, organism-based; conditions: in vivo
HCT-116 [19] = assay: Antiproliferative activity against human HCT116 cells in presence of 5 uM phloretin measured after 72 hrs by CCK-8 assay; assay type: functional, cell-based; conditions: HCT-116, 72 h
[20] = MRT (0 to t) in mouse at 10 mg/kg, ip measured upto 24 hrs; assay type: ADME, organism-based; conditions: in vivo
HCT-116 [21] = assay: Antimigratory activity against human HCT116 cells assessed as wound healing rate at 0.05 to 0.002 microM incubated for 24 hrs by wound healing assay (reference value: 62%); assay type: functional; conditions: dose 0.05-0.002 µM, at 0.002 to 0.05 µM
[22] = Toxicity in mouse xenografted with human HCT-116 cells assessed as organ damage by measuring change in lungs at 10 mg/kg, ip twice a day administered 21 consecutive days; assay type: organism-based; conditions: in vivo
HCT-116 [23] = assay: Antimigratory activity against human HCT116 cells assessed as inhibition of cell migration at 0.05 microM incubated for 24 hrs by wound healing assay relative to control; assay type: functional; design: scale not given: the % may be the effect or the level left
[24] = Solubility of the compound in double distilled water measured upto 30 mins by UV-vis spectrophotometry; assay type: physicochemical
HCT-116 [25] = assay: In vivo antitumor effect in human HCT-116 cells xenografted mouse model assessed as tumor growth inhibition at 20 mg/kg, ip twice a day administered 21 consecutive days; assay type: functional; conditions: read-out: TGI
[26] = Stability of the compound in mouse serum assessed as compound remaining measured upto 120 mins; assay type: ADME, cell-free; conditions: read-out: Stability
[27] = Toxicity in mouse xenografted with human HCT-116 cells assessed as organ damage by measuring change in liver at 10 mg/kg, ip twice a day administered 21 consecutive days; assay type: organism-based; conditions: in vivo
HCT-116 [28] = assay: In vivo antitumor effect in human HCT-116 cells xenografted mouse model assessed as inhibition of tumor cell proliferation by measuring Ki67 at 10 to 20 mg/kg, ip twice a day administered 21 consecutive days by TUNEL based assay; assay type: functional, organism-based; conditions: dose 10-20 mg/kg
[29] = Toxicity in mouse xenografted with human HCT-116 cells assessed as organ damage by measuring change in heart at 10 mg/kg, ip twice a day administered 21 consecutive days; assay type: organism-based; conditions: in vivo
HCT-116 [30] = assay: Induction of apoptosis in human HCT116 cells assessed as accumulation of cells at G1 phase at 0.1 uM measured after 48 hrs by Annexin V-PI Flow cytometry assay (reference value: 51.12%); assay type: functional
HCT-116 [31] = assay: Induction of apoptosis in 100 pmol GLUT1 siRNA treated human HCT-116 cells assessed as late apoptotic cells at 50 nM incubated for 48 hrs (reference value: 13.36%); assay type: functional
[32] = Half life in mouse at 10 mg/kg, ip measured upto 24 hrs; assay type: ADME, organism-based; conditions: in vivo

CN1c2ccc(F)cc2C(=O)N2CCc3c([nH]c4ccc(O[C@@H]5O[C@H](CO)[C@@H](O)[C@H](O)[C@H]5O)cc34)[C@H]21
inhibition (Homo sapiens): Active
Cmax [1]: 8840 ng/mL
Activity (HCT-116 [2]): 32%
Activity (HCT-116 [3]): 30.19%
inhibition in vivo at 10 mg/kg (HCT-116 [4]): 72%
Activity [5]: Non-Toxic
Activity (HCT-116 [6]): Active
Activity [7]: Non-Toxic
Activity (HCT-116 [8]): Active
Tmax [9]: 30 min
Activity (HCT-116 [10]): 26.54%
Activity (HCT-116 [11]): Active
Activity (HCT-116 [12]): 92.85%
IC50 at 72 h [13]: 221 nM
Activity (HCT-116 [14]): 88.98%
MRT last at 24 h [15]: 59.5 min
Activity (HCT-116 [16]): Dose-Dependent Effect
Activity (HCT-116 [17]): Dose-Dependent Effect
half-life [18]: 372 min
IC50 (HCT-116 [19]): 210 nM
MRT last at 24 h [20]: 48.1 min
Activity (HCT-116 [21]): 1.1%
Activity [22]: Non-Toxic
Activity (HCT-116 [23]): 100%
solubility at 0.5 h [24]: 2150 µg/mL (≈ 4.3 mM)
inhibition in vivo at 20 mg/kg (HCT-116 [25]): 82%
remaining at 2 h [26]: 100%
Activity [27]: Non-Toxic
Activity (HCT-116 [28]): Active
Activity [29]: Non-Toxic
Activity (HCT-116 [30]): 1.57%
Activity (HCT-116 [31]): 22.61%
half-life [32]: 145 min
